Laboratory results published in patent US6492416B1, “4,5-diaryl-3(2H)-furanone derivatives as cyclooxygenase-2 inhibitors” (Pacific Corporation, priority 1999, dated 2002).
In brackets after ≈: the same amount, converted by molar mass.

Tests used:
[1] = system: male Sprague-Dawley (SD) rats; assay: Carrageenan-induced foot edema in rats (CFE); type: in vivo; conditions: oral dose 3 mg/kg body weight, rat, paw volume 3 hours after Carrageenan
Description: An appropriate amount of a compound of this invention suspended in 1% methylcellulose (MC) solution was administered to male Sprague-Dawley (SD) rats weighing 150˜200 g by oral gavage. The volume of the administered vehicle for a compound of this invention was controlled to be smaller than 10 ml/kg body weight of the animal. One hour later, 0.1 ml of 1% Carrageenan saline solution was directly injected into the right paw of the rats to induce edema in the paw. The paw volumes at 0 hour and at 3 hours after the injection of Carrageenan were measured by using a displacement plethysmometer (Ugo Basile, Italy). The paw volumes were used to calculate % inhibition of CFE by an amount of a compound of this invention according to the following equation.
% Inhibition of CFE=(1−Δtreated/Δcontrol)×100
wherein Δtreated=[paw volume at three hours after the Carrageenan injection−paw volume right after Carrageenan injection] for a drug-administered rat, and Δcontrol=[paw volume at three hours after the Carrageenan injection−paw volume right after Carrageenan injection] for a rat without drug administration.
In order to determine the inhibitory activity of a compound of this invention at a dose, usually 5 to 8 animals were used both for drug-treated group and for control group.

[2] = molecular target: T1, COX-1 (Mus musculus, UniProt P22437); assay: Evaluation of COX-1 activity: PGE2 formation in mouse peritoneal macrophages without aspirin and LPS treatment; type: cell-based
T1 sequence (P22437 27-602): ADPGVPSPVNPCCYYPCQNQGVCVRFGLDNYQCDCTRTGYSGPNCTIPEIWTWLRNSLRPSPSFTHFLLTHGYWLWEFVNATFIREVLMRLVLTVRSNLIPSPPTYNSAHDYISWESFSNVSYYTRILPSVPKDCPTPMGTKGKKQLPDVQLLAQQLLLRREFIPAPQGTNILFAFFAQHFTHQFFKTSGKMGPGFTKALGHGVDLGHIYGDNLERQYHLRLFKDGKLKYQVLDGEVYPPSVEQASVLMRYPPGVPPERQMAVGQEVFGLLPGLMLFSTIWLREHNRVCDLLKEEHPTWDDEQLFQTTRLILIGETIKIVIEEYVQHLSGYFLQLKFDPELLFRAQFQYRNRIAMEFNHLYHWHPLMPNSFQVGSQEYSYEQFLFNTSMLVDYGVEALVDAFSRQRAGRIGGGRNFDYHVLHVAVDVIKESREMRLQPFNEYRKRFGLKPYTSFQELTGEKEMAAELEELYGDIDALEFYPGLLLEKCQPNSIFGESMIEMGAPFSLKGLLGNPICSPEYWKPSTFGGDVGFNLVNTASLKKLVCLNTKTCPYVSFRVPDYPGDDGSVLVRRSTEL
In short: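 Peritoneal macrophages from C57BL/6 mice, without aspirin or LPS treatment, were plated at 1×10^6 cells/ml and fixed 2 h at 37 °C. Cells were preincubated 10 min, then given 10 μM arachidonic acid plus compound for 10 min; PGE2 was measured by RIA or EIA. IC50 came from 4–5 concentrations.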

[3] = molecular target: T2, COX-2 (Mus musculus, UniProt Q05769); assay: Evaluation of COX-2 activity: PGE2 formation in aspirin-treated, LPS-stimulated mouse peritoneal macrophages; type: cell-based
T2 sequence (Q05769 18-604): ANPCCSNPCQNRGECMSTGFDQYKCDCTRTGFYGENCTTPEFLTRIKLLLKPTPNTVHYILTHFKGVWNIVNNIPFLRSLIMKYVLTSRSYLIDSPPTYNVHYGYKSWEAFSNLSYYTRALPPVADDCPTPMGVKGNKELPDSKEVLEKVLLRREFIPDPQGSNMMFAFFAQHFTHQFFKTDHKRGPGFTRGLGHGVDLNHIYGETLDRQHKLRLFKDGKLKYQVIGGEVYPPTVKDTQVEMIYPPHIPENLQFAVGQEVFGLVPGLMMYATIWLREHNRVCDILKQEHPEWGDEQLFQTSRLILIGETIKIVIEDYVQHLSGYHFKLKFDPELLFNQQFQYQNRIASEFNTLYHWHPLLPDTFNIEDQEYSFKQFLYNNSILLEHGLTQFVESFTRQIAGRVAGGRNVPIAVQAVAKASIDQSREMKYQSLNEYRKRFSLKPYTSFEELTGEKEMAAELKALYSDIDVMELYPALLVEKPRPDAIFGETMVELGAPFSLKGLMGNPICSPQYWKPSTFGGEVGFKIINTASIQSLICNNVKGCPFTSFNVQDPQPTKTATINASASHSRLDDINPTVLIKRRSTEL
In short: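 C57BL/6 peritoneal macrophages treated with 500 μM aspirin to block COX-1, adhered, then stimulated with 10 μg/ml LPS for 16 h at 37 °C to induce COX-2.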

Row | IC50, μg/ml COX-1 [2] [µg/mL] | IC50, μg/ml COX-2 [3] [µg/mL] | melting point [°C] | Compound | % Inhibition (CFE) [1] [%]
1 | 3 (≈ 7.55 µM) | 0.03 (≈ 0.0755 µM) | 199 to 200 | CC1(C)OC(c2ccc(S(N)(=O)=O)c(F)c2)=C(c2ccc(F)c(F)c2)C1=O [Example 311] | 30
2 | 4 (≈ 9.69 µM) | 0.009 (≈ 0.0218 µM) | 150 to 151 | CC1(C)OC(c2ccc(S(C)(=O)=O)c(Cl)c2)=C(c2ccc(F)c(F)c2)C1=O [Example 361] | 41
3 | 0.83 (≈ 2.06 µM) | 0.0014 (≈ 0.00347 µM) | 185 | CCSc1ccc(C2=C(c3ccc(S(N)(=O)=O)cc3)OC(C)(C)C2=O)cc1 [Example 146] | 24
4 |  |  |  | CC1(C)OC(c2ccc(S(N)(=O)=O)cc2)=C(c2cccc(C(F)(F)F)c2)C1=O [Example 23, 5-{4-(Aminosulfonyl)phenyl}-2,2-dimethyl-4-{3-(trifluoromethyl)phenyl}-3(2H)-furanone] | 33
5 | 3 (≈ 7.8 µM) | 0.03 (≈ 0.078 µM) | 121 to 123 | CC(C)c1ccc(C2=C(c3ccc(S(C)(=O)=O)cc3)OC(C)(C)C2=O)cc1 [Example 84] | 25
6 | 50 (≈ 114 µM) | 0.03 (≈ 0.0683 µM) | 133 to 134 | CC1(C)OC(c2ccc(S(C)(=O)=O)c(Br)c2)=C(c2cccc(F)c2)C1=O [Example 343] | 25
7 | 200 (≈ 507 µM) | 0.02 (≈ 0.0507 µM) | 163 to 164 | CC1(C)OC(c2ccc(S(C)(=O)=O)c(Cl)c2)=C(c2cccc(F)c2)C1=O [Example 359] | 28
8 | 3 (≈ 7.84 µM) | 0.03 (≈ 0.0784 µM) | 142 to 143 | Cc1cccc(C2=C(c3ccc(S(C)(=O)=O)cc3)OC3(CCCC3)C2=O)c1 [Example 255] | 31
9 | 10 (≈ 25.2 µM) | 0.03 (≈ 0.0757 µM) | 158 to 159 | CC1(C)OC(c2ccc(S(C)(=O)=O)c(F)c2)=C(c2ccc(F)c(F)c2)C1=O [Example 284] | 33
10 | 10 (≈ 26.4 µM) | 0.05 (≈ 0.132 µM) | 160 to 161 | CC1(C)OC(c2ccc(S(C)(=O)=O)c(F)c2)=C(c2ccc(F)cc2)C1=O [Example 276] | 26
11 | 1.8 (≈ 4.98 µM) | 0.016 (≈ 0.0443 µM) | 188 to 189 | CC1(C)OC(c2ccc(S(N)(=O)=O)cc2)=C(c2ccccc2F)C1=O [Example 155] | 35
12 |  | 1 (≈ 2.9 µM) | 143 to 144 | C[S+]([O-])c1ccc(C2=C(c3cccc(F)c3)C(=O)C(C)(C)O2)cc1 (stereo not shown) [Example 176, 2,2-dimethyl-4-(3-fluorophenyl)-5-{4-(methylsulfinyl)phenyl}-3(2H)-furanone] | 23
13 |  |  | 114 to 115 | Cn1cc(C2=C(c3ccc(S(C)(=O)=O)cc3)OC(C)(C)C2=O)cn1 [Example 20, 2,2-Dimethyl-4-{4-(1-N-methylpyrazolyl)}-5-{4-(methylsulfonyl)phenyl)-3(2H)-furanone] | 36
14 | 100 (≈ 288 µM) | 0.03 (≈ 0.0864 µM) |  | Cn1cc(C2=C(c3ccc(S(N)(=O)=O)cc3)OC(C)(C)C2=O)cn1 [Example 164] | 29
15 | 50 (≈ 130 µM) | 0.05 (≈ 0.13 µM) | 189 to 190 | CC(=O)c1cccc(C2=C(c3ccc(S(C)(=O)=O)cc3)OC(C)(C)C2=O)c1 [Example 5, 4-(3-acetylphenyl)-2,2-dimethyl-5-{4-(methylsulfonyl)phenyl}-3(2H)-furanone] | 
16 | 300 (≈ 710 µM) | 0.9 (≈ 2.13 µM) | 128 to 132 | CC1(C)OC(c2ccc(S(N)(=O)=O)c(Br)c2)=C(c2ccccc2)C1=O [Example 351, 5-{4-(Aminosulfonyl)-3-bromophenyl}-2,2-dimethyl-4-phenyl-3(2H)-furanone] | 
17 | 20 (≈ 56.1 µM) | 0.2 (≈ 0.561 µM) | 115 to 117 | CCC1(C)OC(c2ccc(S(C)(=O)=O)cc2)=C(c2ccccc2)C1=O (stereo not shown) [Example 31, 2-Ethyl-2-methyl-5-{4-(methylsulfonyl)phenyl}-4-phenyl-3(2H)-furanone] | 
18 | 5 (≈ 12.9 µM) | 0.05 (≈ 0.129 µM) | 158 to 159 | CC1(C)OC(c2ccc(S(C)(=O)=O)cc2)=C(c2cccc([N+](=O)[O-])c2)C1=O [Example 6, 2,2-Dimethyl-5-{4-(methylsulfonyl)phenyl}-4-(3-nitrophenyl)-3(2H)-furanone] | 
19 | 3 (≈ 7.93 µM) | 0.03 (≈ 0.0793 µM) | 150 to 152 | CC1(C)OC(c2ccc(S(C)(=O)=O)cc2F)=C(c2ccc(F)cc2)C1=O [Example 324] | 
20 | 1.94 (≈ 5.11 µM) | 0.0067 (≈ 0.0177 µM) | 210 to 211 | CC1(C)OC(c2ccc(S(N)(=O)=O)cc2)=C(c2ccc(F)c(F)c2)C1=O [Example 138] | 
21 | 3 (≈ 7.6 µM) | 0.009 (≈ 0.0228 µM) | 173 to 174 | CC1(C)OC(c2ccc(S(C)(=O)=O)c(Cl)c2)=C(c2ccc(F)cc2)C1=O [Example 360] | 
22 | 100 (≈ 279 µM) | 0.3 (≈ 0.837 µM) | 150 to 152 | CC1(C)OC(c2ccc(S(C)(=O)=O)cc2)=C(c2ccc(O)cc2)C1=O [Example 104, 2,2-Dimethyl-4-(4-hydroxyphenyl)-5-{4-(methylsulfonyl)phenyl}-3(2H)-furanone] | 
23 | 3 (≈ 7.09 µM) | 0.03 (≈ 0.0709 µM) | 173 to 174 | CCC1(CC)OC(c2ccc(S(C)(=O)=O)cc2)=C(c2ccc(F)c(Cl)c2)C1=O [Example 254] | 
24 | 20 (≈ 55.5 µM) | 0.03 (≈ 0.0832 µM) | 175 to 176 | CC1(C)OC(c2ccc(S(C)(=O)=O)cc2F)=C(c2ccccc2)C1=O [Example 321] | 
25 | 50 (≈ 119 µM) | 0.03 (≈ 0.0716 µM) | 96 to 99 | CS(=O)(=O)c1ccc(C2=C(c3cccc(Cl)c3)C(=O)C3(CCOCC3)O2)cc1 [Example 263] | 
26 | 3 (≈ 8.01 µM) | 0.03 (≈ 0.0801 µM) | 138 to 139 | Cc1cc(C2=C(c3cccc(F)c3)C(=O)C(C)(C)O2)ccc1S(C)(=O)=O [Example 378, 2,2-Dimethyl-4-(3-fluorophenyl)-5-{3-methyl-4-(methylsulfonyl)phenyl}-3(2H)-furanone] | 

Row | Compound | IC50, μg/ml COX-1 [2] [µg/mL] | IC50, μg/ml COX-2 [3] [µg/mL] | melting point [°C] | % Inhibition (CFE) [1] [%]
27 | 5-{(aminosulfonyl)-3-fluorophenyl}-4-(3,5-difluorophenyl)-2,2-dimethyl-3(2H)-furanone [Example 312] | 100 | 0.02 |  | 31
